In patent publication US10138260B2, “Compounds of phosphinanes and azaphosphinanes, a process for their preparation and pharmaceutical compositions containing them” (LES LABORATOIRES SERVIER, priority 2016, dated 2018):

Target: T1, TAFIa (Homo sapiens, UniProt Q96IY4)
T1 sequence (Q96IY4 115-423): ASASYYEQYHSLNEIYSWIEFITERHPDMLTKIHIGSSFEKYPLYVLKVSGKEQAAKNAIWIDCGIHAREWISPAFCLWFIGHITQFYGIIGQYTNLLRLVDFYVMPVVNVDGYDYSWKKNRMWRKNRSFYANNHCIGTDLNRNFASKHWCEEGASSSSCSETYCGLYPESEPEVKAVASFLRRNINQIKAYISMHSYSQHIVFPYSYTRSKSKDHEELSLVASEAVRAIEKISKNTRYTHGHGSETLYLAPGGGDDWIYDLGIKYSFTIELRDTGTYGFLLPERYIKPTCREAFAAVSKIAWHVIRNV
Experiment: Inhibition of TAFIa (hippuryl-Arg test)
Format: biochemical
Details: TAFIa 2 nM, hippuryl-arginine 5 mM, 45 minutes, relative to control containing the carrier; for inhibition at 0.01 µM: compound at 10 nM; for inhibition at 0.02 µM: compound at 20 nM
Method: Human TAFI (4 nM) is incubated with human thrombin (10 nM) and human thrombomodulin (5 nM) in the presence of calcium (10 mM). After incubation for 20 minutes, the activation reaction is stopped by addition of PPACK (1 μM final), an irreversible thrombin inhibitor.
The reactions take place in Hepes buffer (25 mM Hepes, 137 mM NaCl, 3.5 mM KCl)+0.1% bovine albumin, pH 7.4 at 28° C. and with stirring.
The test compound is added to the solution of TAFIa (2 nM) and incubated for 45 minutes in the presence of hippuryl-arginine (5 mM). The reaction is stopped by addition of hydrochloric acid (1M) neutralised subsequently with sodium hydroxide (1M), and then the mixture is buffered with disodium hydroxyphosphate (1M pH 7.4). […] The reaction mixture is stirred (vortex) and then centrifuged. The supernatant is transferred to a 96-well microplate, and the absorbance is measured using a spectrophotometer at 405 nm (Spectramax plus, Molecular Devices).
The OD value of a well containing the reagents without TAFI is subtracted from all the OD values measured. The percentage inhibition of TAFIa at a given concentration of the test compound is determined by means of the following formula: % inhibition=100−[(OD compound×100)/OD carrier]
The compounds are evaluated at 10 nM and 20 nM under the experimental conditions described above and the results are expressed as the percentage inhibition relative to a control containing the carrier in the absence of compound.

Row | inhibition at 0.01 µM | inhibition at 0.02 µM | Structure (SMILES)
1 | 71% | 85% | NCCCC[C@@]1(C(=O)O)CN(Cc2ccc(F)cc2-c2cc3ccccc3s2)CCP1(=O)O [Example 216, (3S)-3-(4-AMINOBUTYL)-1-[[2-(1-BENZOTHIOPHEN-2-YL)-4-FLUOROPHENYL]-METHYL]-4-HYDROXY-4-OXO-1,4-AZAPHOSPHINANE-3-CARBOXYLIC ACID]
2 | 66% | 83% | Cn1cncc1-c1cc(F)ccc1CN1CCP(=O)(O)[C@](CCCCN)(C(=O)O)C1 [Example 217, (3S)-3-(4-AMINOBUTYL)-1-[4-FLUORO-2-(1-METHYL-1H-IMIDAZOL-5-YL)BENZYL]-4-HYDROXY-4-OXO-1,4-AZAPHOSPHINANE-3-CARBOXYLIC ACID]
3 | 67% | 83% | Cc1ccc(-c2cc(Cl)ccc2CN2CCP(=O)(O)[C@](CCCCN)(C(=O)O)C2)cc1 [Example 218, (3S)-3-(4-AMINOBUTYL)-1-[[4-CHLORO-2-(4-METHYLPHENYL)PHENYL]METHYL]-4-HYDROXY-4-OXO-1,4-AZAPHOSPHINANE-3-CARBOXYLIC ACID]
4 | 92% | 98% | Cc1ncc(-c2cc(F)ccc2CN2CCP(=O)(O)[C@](CCCCN)(C(=O)O)C2)n1C [Example 219, (3S)-3-(4-AMINOBUTYL)-1-[2-(1,2-DIMETHYL-1H-IMIDAZOL-5-YL)-4-FLUOROBENZYL]-4-HYDROXY-4-OXO-1,4-AZAPHOSPHINANE-3-CARBOXYLIC ACID]
5 | 83% | 97% | NCCCC[C@@]1(C(=O)O)CN(Cc2ccc(F)cc2-c2cnc3ccccn23)CCP1(=O)O [Example 220, (3S)-3-(4-AMINOBUTYL)-1-[(4-FLUORO-2-IMIDAZO[1,2-A]PYRIDIN-3-YLPHENYL)METHYL]-4-HYDROXY-4-OXO-1,4-AZAPHOSPHINANE-3-CARBOXYLIC ACID]
6 | 75% | 88% | COc1cc(-c2cc(F)ccc2CN2CCP(=O)(O)[C@](CCCCN)(C(=O)O)C2)ccn1 [Example 221, (3S)-3-(4-AMINOBUTYL)-1-[[4-FLUORO-2-(2-METHOXYPYRIDIN-4-YL)PHENYL]-METHYL]-4-HYDROXY-4-OXO-1,4-AZAPHOSPHINANE-3-CARBOXYLIC ACID]
7 | 73% | 85% | NCCCC[C@@]1(C(=O)O)CN(Cc2ccc(F)cc2-c2cc[nH]c(=O)c2)CCP1(=O)O [Example 222, (3S)-3-(4-AMINOBUTYL)-1-[[4-FLUORO-2-(2-OXO-1H-PYRIDIN-4-YL)PHENYL]-METHYL]-4-HYDROXY-4-OXO-1,4-AZAPHOSPHINANE-3-CARBOXYLIC ACID]
8 | 71% | 83% | Cc1ccc(-c2cc(O)ccc2CN2CCP(=O)(O)[C@](CCCCN)(C(=O)O)C2)cc1 [Example 223, (3S)-3-(4-AMINOBUTYL)-4-HYDROXY-1-[[4-HYDROXY-2-(4-METHYLPHENYL)-PHENYL]METHYL]-4-OXO-1,4-AZAPHOSPHINANE-3-CARBOXYLIC ACID]
9 | 86% | 93% | NCCCC[C@@]1(C(=O)O)CN(Cc2ccc(O)cc2-c2cnc3ccccn23)CCP1(=O)O [Example 224, (3S)-3-(4-AMINOBUTYL)-4-HYDROXY-1-[4-HYDROXY-2-(IMIDAZO[1,2-A]-PYRIDIN-3-YL)BENZYL]-4-OXO-1,4-AZAPHOSPHINANE-3-CARBOXYLIC ACID]
10 | 76% | 85% | NCCCC[C@@]1(C(=O)O)CN(Cc2ccc(O)cc2-c2ccncc2)CCP1(=O)O [Example 225, (3S)-3-(4-AMINOBUTYL)-4-HYDROXY-1-[(4-HYDROXY-2-PYRIDIN-4-YLPHENYL)METHYL]-4-OXO-1,4-AZAPHOSPHINANE-3-CARBOXYLIC ACID]
11 | 71% | 88% | NCCCC[C@@]1(C(=O)O)CN(Cc2ccc(F)cc2-c2cccc(F)c2)CCP1(=O)O [Example 226, (3S)-3-(4-AMINOBUTYL)-1-[[4-FLUORO-2-(3-FLUOROPHENYL)PHENYL]METHYL]-4-HYDROXY-4-OXO-1,4-AZAPHOSPHINANE-3-CARBOXYLIC ACID]
12 | 84% | 91% | NCCCC[C@@]1(C(=O)O)CN(Cc2ccc(O)cc2-c2cccs2)CCP1(=O)O [Example 227, (3S)-3-(4-AMINOBUTYL)-4-HYDROXY-1-[(4-HYDROXY-2-THIOPHEN-2-YLPHENYL)METHYL]-4-OXO-1,4-AZAPHOSPHINANE-3-CARBOXYLIC ACID]
13 | 63% | 82% | NCCCC[C@@]1(C(=O)O)CN(Cc2ccc(O)cc2-c2ccc(F)cc2)CCP1(=O)O [Example 228, (3S)-3-(4-AMINOBUTYL)-1-[[2-(4-FLUOROPHENYL)-4-HYDROXYPHENYL]-METHYL]-4-HYDROXY-4-OXO-1,4-AZAPHOSPHINANE-3-CARBOXYLIC ACID]

More lines, now with the values behind:

Row | Structure (SMILES) | inhibition at 0.01 µM | inhibition at 0.02 µM
14 | NCCCC[C@@]1(C(=O)O)CN(Cc2ccccc2-c2cc[nH]c(=O)c2)CCP1(=O)O [Example 204, (3S)-3-(4-AMINOBUTYL)-4-HYDROXY-4-OXO-1-[[2-(2-OXO-1H-PYRIDIN-4-YL)PHENYL]METHYL]-1,4-AZAPHOSPHINANE-3-CARBOXYLIC ACID] | 70% | 86%
15 | NCCCC[C@@]1(C(=O)O)CN(Cc2ccc(F)cc2-c2ccccc2Cl)CCP1(=O)O [Example 206, (3S)-3-(4-AMINOBUTYL)-1-[[2-(2-CHLOROPHENYL)-4-FLUOROPHENYL]METHYL]-4-HYDROXY-4-OXO-1,4-AZAPHOSPHINANE-3-CARBOXYLIC ACID] | 67% | 80%
16 | COc1cccc(-c2ccccc2CN2CCP(=O)(O)[C@](CCCCN)(C(=O)O)C2)c1OC [Example 207, (3S)-3-(4-AMINOBUTYL)-1-[[2-(2,3-DIMETHOXYPHENYL)PHENYL]METHYL]-4-HYDROXY-4-OXO-1,4-AZAPHOSPHINANE-3-CARBOXYLIC ACID] | 71% | 85%
17 | CS(=O)(=O)c1ccccc1-c1ccccc1CN1CCP(=O)(O)[C@](CCCCN)(C(=O)O)C1 [Example 208, (3S)-3-(4-AMINOBUTYL)-4-HYDROXY-1-[[2-(2-METHYLSULPHONYLPHENYL)-PHENYL]METHYL]-4-OXO-1,4-AZAPHOSPHINANE-3-CARBOXYLIC ACID] | 35% | 46%
18 | NCCCC[C@@]1(C(=O)O)CN(Cc2ccccc2-c2ccc3ccccc3c2)CCP1(=O)O [Example 209, (3S)-3-(4-AMINOBUTYL)-4-HYDROXY-1-[(2-NAPHTHALEN-2-YLPHENYL)-METHYL]-4-OXO-1,4-AZAPHOSPHINANE-3-CARBOXYLIC ACID] | 76% | 87%
19 | NCCCC[C@@]1(C(=O)O)CN(Cc2ccc(Cl)cc2-c2ccc(F)cc2)CCP1(=O)O [Example 210, (3S)-3-(4-AMINOBUTYL)-1-[[4-CHLORO-2-(4-FLUOROPHENYL)PHENYL]METHYL]-4-HYDROXY-4-OXO-1,4-AZAPHOSPHINANE-3-CARBOXYLIC ACID] | 71% | 79%
20 | NCCCC[C@@]1(C(=O)O)CN(Cc2ccc(F)cc2-c2ccc(O)cc2)CCP1(=O)O [Example 211, (3S)-3-(4-AMINOBUTYL)-1-[[4-FLUORO-2-(4-HYDROXYPHENYL)PHENYL]-METHYL]-4-HYDROXY-4-OXO-1,4-AZAPHOSPHINANE-3-CARBOXYLIC ACID] | 85% | 95%
21 | Cn1cc(-c2cc(F)ccc2CN2CCP(=O)(O)[C@](CCCCN)(C(=O)O)C2)cn1 [Example 212, (3S)-3-(4-AMINOBUTYL)-1-[4-FLUORO-2-(1-METHYL-1H-PYRAZOL-4-YL)BENZYL]-4-HYDROXY-4-OXO-1,4-AZAPHOSPHINANE-3-CARBOXYLIC ACID] | 62% | 86%
22 | NCCCC[C@@]1(C(=O)O)CN(Cc2ccc(F)cc2-c2cccs2)CCP1(=O)O [Example 213, (3S)-3-(4-AMINOBUTYL)-1-[(4-FLUORO-2-THIOPHEN-2-YLPHENYL)METHYL]-4-HYDROXY-4-OXO-1,4-AZAPHOSPHINANE-3-CARBOXYLIC ACID] | 83% | 92%
23 | NCCCC[C@@]1(C(=O)O)CN(Cc2ccccc2-c2cccc3cnccc23)CCP1(=O)O [Example 214, (3S)-3-(4-AMINOBUTYL)-4-HYDROXY-1-[(2-ISOQUINOLIN-5-YLPHENYL)-METHYL]-4-OXO-1,4-AZAPHOSPHINANE-3-CARBOXYLIC ACID] | 79% | 91%
24 | NCCCC[C@@]1(C(=O)O)CN(Cc2ccc(F)cc2-c2ccc3ccccc3c2)CCP1(=O)O [Example 215, (3S)-3-(4-AMINOBUTYL)-1-[(4-FLUORO-2-NAPHTHALEN-2-YLPHENYL)METHYL]-4-HYDROXY-4-OXO-1,4-AZAPHOSPHINANE-3-CARBOXYLIC ACID] | 82% | 91%
